This experiment has as its target T1, full length AKT1 (Homo sapiens, UniProt P31749).
T1 construct: Full-length human AKT1 gene was amplified by PCR; His tag (from vector pFastbacHTb; purified on Nickel Sepharose) (N); made in house; host or cells: baculovirus; Sf9 / T. ni insect cells
The experiment is described as follows: Full-length AKT enzyme assay (substrate phosphorylation, SPA). The format is biochemical. To be noted: in at least one experimental run; pIC50 = -log(IC50), IC50 in molar units; 4 uM ATP, 10 nM enzyme; read-out: pIC50 value against full length AKT1 (converted). The text has this:
Cloning of Full-Length Human (FL) AKT1:
Full-length human AKT1 gene was amplified by PCR from a plasmid containing myristylated-AKT1-ER (gift from Robert T. Abraham, Duke University under MTA, described in Klippel et al. in Molecular and Cellular Biology 1998 Volume 18 p. 5699) using the 5′ primer: SEQ. ID NO: 2 5′ […] 3′ and the 3′ primer: SEQ. ID NO: 3 […] 3′. The 5′ primer included a BamHI site and the 3′ primer included an XhoI site for cloning purposes. The resultant PCR product was subcloned in pcDNA3 as a BamHI/XhoI fragment. […]
Compounds of the present invention were tested for AKT 1, 2, and 3 protein serine kinase inhibitory activity in substrate phosphorylation assays. […] Substrate phosphorylation was detected by the following procedure.
Assays were performed in 384 well U-bottom white plates. […] The reaction was stopped by the addition of 50 ul SPA bead mix (Dulbecco's PBS without Mg^2+ and Ca^2+, 0.1% Triton X-100, 5 mM EDTA, 50 uM ATP, 2.5 mg/ml Streptavidin-coated SPA beads.) The plate was sealed, the beads were allowed to settle overnight, and then the plate was counted in a Packard Topcount Microplate Scintillation Counter (Packard Instrument Co., Meriden, Conn.). […]

T1 sequence (P31749 whole entry): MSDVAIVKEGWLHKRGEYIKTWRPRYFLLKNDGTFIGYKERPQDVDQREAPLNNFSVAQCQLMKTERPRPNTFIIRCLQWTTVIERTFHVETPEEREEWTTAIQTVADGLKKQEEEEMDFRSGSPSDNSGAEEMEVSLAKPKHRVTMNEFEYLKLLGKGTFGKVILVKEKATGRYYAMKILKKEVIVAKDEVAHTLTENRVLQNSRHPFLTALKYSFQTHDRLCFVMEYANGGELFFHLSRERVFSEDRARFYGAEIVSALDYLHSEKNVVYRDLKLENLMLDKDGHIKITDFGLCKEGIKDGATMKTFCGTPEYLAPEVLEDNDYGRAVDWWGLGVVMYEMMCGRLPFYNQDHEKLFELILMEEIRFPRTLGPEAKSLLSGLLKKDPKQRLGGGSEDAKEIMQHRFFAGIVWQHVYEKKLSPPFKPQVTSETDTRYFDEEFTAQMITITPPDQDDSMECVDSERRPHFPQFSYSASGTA

As to `Cn1ncc(Cl)c1-c1ncc(C(=O)N[C@H](CN)Cc2cccc(F)c2)s1` [Example 2, N-{(1S)-2-amino-1-[(3-fluorophenyl)methyl]ethyl}-2-(4-chloro-1-methyl-1H-pyrazol-5-yl)-1,3-thiazole-5-carboxamide], the IC50 is 10 nM.

For the origin of these results see patent US20110092423A1, “INHIBITORS OF Akt ACTIVITY” (GlaxoSmithKline, LLC, priority 2008, published 2011).
